pIC50: −log10 of the molar value.
Columns and labels:
[1] = target: Protein mono-ADP-ribosyltransferase PARP14 (Homo sapiens, UniProt Q460N5); test: Inhibition of human ARTD8 by fluorescence analysis
[2] = target: T1, Protein mono-ADP-ribosyltransferase PARP3 (Homo sapiens, UniProt Q9Y6F1); test: Inhibition of human ARTD3 by fluorescence analysis
T1 sequence (Q9Y6F1 whole entry): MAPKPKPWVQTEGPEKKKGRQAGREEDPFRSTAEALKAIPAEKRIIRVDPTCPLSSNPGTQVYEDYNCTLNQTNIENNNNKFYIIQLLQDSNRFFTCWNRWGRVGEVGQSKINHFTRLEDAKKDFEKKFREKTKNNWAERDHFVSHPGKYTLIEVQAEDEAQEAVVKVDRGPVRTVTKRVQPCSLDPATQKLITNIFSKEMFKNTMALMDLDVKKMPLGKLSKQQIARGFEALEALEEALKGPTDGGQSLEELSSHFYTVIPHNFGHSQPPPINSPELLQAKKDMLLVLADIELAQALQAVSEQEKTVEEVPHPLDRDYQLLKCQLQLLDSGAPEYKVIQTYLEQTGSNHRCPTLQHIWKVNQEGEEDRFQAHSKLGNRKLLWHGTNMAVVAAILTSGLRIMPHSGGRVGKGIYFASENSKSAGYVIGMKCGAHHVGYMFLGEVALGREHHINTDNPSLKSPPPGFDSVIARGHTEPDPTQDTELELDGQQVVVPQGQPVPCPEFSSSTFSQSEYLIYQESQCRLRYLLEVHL

[3] = target: Poly [ADP-ribose] polymerase 1 (Homo sapiens, UniProt P09874); test: Inhibition of human ARTD1 by fluorescence analysis
[4] = target: T2, Protein mono-ADP-ribosyltransferase PARP15 (Homo sapiens, UniProt Q460N3); test: Inhibition of human ARTD7 by fluorescence analysis
T2 sequence (Q460N3 whole entry): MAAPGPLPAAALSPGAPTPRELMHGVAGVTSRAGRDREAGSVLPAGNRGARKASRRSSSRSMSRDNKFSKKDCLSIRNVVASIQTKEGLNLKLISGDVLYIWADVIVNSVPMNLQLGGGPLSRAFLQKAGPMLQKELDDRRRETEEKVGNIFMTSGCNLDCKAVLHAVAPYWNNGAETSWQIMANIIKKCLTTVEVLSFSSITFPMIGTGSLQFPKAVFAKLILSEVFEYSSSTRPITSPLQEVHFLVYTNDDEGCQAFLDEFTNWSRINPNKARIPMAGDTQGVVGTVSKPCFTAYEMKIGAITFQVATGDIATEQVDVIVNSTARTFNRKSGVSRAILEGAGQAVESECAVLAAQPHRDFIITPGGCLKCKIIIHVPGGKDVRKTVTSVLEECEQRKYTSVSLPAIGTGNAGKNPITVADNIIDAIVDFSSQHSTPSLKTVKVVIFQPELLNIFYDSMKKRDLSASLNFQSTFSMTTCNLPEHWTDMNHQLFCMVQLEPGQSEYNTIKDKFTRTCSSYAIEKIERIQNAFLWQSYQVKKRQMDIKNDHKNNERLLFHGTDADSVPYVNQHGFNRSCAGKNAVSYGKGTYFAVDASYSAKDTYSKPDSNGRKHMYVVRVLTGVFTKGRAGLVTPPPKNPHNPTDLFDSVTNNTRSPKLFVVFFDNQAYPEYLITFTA

[5] = target: Poly [ADP-ribose] polymerase 2 (Homo sapiens, UniProt Q9UGN5); test: Inhibition of human ARTD2 by fluorescence analysis
[6] = target: T3, Poly [ADP-ribose] polymerase tankyrase-1 (Homo sapiens, UniProt O95271); test: Inhibition of human TNKS1 by fluorescence analysis
T3 sequence (O95271 whole entry): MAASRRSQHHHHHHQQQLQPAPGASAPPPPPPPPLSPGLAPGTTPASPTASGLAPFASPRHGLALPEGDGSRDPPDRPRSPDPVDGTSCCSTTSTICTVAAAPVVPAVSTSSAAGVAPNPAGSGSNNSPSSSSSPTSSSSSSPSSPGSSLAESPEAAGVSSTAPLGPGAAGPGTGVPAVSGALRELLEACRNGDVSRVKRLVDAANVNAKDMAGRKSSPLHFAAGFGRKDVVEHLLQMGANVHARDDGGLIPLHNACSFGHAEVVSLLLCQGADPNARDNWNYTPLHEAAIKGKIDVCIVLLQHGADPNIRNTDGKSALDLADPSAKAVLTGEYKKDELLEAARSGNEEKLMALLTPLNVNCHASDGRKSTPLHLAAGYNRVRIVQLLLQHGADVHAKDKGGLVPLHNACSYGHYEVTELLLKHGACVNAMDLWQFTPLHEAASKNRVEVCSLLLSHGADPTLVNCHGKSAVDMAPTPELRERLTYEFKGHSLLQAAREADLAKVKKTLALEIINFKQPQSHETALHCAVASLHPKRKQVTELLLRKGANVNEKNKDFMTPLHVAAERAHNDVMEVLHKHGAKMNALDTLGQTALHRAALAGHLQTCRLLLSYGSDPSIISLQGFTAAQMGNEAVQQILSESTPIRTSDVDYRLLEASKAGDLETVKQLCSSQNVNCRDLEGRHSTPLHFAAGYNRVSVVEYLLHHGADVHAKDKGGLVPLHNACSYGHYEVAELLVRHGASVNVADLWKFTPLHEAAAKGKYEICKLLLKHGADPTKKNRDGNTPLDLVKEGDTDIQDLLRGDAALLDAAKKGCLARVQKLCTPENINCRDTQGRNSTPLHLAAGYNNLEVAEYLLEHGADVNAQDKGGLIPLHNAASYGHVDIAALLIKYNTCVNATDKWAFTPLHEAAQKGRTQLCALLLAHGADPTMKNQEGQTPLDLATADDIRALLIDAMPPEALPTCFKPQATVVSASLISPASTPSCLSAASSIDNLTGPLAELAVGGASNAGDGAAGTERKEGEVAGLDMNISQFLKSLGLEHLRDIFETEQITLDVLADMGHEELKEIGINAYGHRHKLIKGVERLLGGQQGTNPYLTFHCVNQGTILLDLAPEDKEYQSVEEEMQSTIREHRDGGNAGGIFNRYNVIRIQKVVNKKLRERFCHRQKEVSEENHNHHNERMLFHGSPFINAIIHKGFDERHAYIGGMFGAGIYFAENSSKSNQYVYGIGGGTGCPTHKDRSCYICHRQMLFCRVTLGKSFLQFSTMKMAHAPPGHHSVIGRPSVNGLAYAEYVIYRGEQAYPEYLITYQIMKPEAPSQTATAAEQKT

[7] = target: Protein mono-ADP-ribosyltransferase PARP4 (Homo sapiens, UniProt Q9UKK3); test: Inhibition of human ARTD4 by fluorescence analysis
Protein mono-ADP-ribosyltransferase PARP4, sequence (Q9UKK3 whole entry): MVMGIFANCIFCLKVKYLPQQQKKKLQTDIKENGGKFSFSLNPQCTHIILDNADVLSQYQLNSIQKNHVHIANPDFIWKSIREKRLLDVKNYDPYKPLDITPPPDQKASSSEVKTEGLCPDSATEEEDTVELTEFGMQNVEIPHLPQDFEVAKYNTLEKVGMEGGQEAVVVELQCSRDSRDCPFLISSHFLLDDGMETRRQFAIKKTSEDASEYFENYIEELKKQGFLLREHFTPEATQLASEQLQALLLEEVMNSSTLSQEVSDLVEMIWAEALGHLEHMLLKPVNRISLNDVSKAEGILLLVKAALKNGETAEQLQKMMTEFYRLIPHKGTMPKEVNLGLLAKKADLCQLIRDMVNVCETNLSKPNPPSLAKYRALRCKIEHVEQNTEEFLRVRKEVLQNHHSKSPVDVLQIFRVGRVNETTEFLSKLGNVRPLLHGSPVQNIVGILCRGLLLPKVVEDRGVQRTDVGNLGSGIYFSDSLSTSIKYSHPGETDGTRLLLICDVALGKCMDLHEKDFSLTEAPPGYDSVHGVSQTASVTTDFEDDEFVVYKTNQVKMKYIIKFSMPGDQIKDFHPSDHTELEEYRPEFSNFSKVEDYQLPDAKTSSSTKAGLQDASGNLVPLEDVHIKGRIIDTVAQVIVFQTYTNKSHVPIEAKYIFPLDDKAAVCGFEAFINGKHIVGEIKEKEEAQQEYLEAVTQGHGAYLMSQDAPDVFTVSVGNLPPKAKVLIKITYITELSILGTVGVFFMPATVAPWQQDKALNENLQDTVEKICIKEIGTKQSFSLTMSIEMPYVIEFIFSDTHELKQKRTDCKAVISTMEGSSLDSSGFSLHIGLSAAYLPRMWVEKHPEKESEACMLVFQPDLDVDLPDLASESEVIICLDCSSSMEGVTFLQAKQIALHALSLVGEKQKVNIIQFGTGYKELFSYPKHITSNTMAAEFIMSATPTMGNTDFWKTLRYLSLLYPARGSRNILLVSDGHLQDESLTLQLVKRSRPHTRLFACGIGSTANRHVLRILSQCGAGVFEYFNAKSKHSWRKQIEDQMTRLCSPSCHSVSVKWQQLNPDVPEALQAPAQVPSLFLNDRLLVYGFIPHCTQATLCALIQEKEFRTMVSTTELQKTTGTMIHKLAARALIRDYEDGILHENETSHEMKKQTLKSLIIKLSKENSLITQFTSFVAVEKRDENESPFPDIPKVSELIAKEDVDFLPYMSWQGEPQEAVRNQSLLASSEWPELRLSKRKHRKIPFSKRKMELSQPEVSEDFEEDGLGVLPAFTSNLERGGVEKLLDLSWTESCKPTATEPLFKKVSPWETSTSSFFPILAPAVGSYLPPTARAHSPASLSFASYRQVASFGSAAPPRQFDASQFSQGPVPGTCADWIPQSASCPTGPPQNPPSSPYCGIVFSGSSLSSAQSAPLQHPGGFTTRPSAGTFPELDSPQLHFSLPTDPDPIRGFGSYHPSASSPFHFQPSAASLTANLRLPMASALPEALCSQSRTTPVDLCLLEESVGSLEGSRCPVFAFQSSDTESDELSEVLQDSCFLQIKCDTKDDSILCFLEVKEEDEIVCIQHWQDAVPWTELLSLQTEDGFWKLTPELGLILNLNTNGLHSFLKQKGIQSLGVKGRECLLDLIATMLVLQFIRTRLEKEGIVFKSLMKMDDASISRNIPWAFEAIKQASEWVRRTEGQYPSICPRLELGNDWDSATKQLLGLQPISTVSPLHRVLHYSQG

Poly [ADP-ribose] polymerase 1, sequence (P09874 whole entry): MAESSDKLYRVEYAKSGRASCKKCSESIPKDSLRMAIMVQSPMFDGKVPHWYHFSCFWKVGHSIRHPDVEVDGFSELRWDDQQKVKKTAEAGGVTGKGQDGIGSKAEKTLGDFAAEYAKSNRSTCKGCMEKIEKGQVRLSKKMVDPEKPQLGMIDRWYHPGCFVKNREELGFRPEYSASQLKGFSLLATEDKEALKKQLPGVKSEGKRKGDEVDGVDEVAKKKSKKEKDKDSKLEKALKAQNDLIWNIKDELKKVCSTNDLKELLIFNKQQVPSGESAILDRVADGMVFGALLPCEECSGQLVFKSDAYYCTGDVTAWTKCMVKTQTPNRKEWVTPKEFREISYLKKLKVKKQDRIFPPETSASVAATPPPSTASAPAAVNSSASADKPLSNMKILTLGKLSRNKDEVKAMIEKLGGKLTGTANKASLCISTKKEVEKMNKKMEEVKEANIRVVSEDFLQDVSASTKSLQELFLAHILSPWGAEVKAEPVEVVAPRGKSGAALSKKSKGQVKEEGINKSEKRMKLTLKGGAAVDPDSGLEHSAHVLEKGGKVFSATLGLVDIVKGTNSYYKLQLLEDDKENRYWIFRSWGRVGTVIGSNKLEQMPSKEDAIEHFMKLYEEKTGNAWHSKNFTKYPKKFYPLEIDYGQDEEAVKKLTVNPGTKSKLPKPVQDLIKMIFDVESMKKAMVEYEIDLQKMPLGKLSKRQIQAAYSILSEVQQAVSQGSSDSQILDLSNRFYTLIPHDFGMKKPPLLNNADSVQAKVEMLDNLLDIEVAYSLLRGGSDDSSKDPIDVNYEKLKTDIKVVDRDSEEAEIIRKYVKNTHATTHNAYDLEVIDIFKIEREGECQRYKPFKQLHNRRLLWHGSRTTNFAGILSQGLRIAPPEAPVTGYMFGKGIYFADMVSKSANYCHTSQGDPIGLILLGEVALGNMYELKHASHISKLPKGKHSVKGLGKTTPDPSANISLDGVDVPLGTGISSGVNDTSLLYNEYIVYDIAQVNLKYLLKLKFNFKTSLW
Protein mono-ADP-ribosyltransferase PARP14, sequence (Q460N5 whole entry): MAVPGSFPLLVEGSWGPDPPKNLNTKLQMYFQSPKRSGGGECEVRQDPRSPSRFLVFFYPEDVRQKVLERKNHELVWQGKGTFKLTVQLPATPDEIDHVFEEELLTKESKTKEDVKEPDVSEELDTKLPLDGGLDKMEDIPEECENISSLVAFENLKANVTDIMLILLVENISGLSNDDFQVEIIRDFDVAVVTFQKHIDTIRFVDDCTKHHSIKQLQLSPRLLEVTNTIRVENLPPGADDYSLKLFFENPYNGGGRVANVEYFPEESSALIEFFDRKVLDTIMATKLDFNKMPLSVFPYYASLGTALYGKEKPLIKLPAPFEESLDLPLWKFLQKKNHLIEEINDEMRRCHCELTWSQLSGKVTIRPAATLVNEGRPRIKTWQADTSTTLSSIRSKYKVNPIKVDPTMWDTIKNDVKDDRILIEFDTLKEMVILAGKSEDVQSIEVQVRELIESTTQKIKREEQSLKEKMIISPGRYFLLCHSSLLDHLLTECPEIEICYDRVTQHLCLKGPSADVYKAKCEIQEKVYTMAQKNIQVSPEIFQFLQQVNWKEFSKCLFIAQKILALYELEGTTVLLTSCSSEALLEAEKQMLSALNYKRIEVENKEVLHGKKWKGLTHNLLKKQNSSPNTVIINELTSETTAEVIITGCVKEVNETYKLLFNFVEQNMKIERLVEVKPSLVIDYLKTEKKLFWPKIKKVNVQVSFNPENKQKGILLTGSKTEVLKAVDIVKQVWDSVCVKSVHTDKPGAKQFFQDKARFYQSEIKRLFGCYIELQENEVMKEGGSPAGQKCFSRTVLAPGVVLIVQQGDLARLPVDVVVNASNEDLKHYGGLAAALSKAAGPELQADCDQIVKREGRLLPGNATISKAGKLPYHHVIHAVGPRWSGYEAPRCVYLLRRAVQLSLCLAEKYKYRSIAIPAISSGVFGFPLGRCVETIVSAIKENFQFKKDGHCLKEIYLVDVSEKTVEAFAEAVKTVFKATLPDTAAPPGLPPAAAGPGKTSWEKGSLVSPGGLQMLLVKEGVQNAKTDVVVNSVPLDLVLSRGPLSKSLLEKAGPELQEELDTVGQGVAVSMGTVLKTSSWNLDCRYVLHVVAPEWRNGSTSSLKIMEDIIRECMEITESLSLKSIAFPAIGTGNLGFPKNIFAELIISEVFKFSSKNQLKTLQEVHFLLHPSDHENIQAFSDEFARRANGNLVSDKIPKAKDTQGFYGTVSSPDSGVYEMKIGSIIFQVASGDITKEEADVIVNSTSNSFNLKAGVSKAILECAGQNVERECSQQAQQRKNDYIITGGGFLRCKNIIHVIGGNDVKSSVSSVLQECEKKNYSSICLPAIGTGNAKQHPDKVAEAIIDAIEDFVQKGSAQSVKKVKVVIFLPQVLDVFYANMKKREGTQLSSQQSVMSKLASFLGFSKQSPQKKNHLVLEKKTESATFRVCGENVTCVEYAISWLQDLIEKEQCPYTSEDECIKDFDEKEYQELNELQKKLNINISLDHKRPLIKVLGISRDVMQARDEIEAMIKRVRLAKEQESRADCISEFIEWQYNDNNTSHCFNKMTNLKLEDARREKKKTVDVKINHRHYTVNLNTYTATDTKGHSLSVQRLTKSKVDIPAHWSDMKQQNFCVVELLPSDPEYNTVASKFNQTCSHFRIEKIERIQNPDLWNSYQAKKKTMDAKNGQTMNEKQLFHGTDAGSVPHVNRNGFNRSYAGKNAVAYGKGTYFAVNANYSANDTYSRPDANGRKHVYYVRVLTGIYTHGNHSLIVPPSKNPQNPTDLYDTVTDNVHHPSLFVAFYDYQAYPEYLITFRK
Poly [ADP-ribose] polymerase 2, sequence (Q9UGN5 whole entry): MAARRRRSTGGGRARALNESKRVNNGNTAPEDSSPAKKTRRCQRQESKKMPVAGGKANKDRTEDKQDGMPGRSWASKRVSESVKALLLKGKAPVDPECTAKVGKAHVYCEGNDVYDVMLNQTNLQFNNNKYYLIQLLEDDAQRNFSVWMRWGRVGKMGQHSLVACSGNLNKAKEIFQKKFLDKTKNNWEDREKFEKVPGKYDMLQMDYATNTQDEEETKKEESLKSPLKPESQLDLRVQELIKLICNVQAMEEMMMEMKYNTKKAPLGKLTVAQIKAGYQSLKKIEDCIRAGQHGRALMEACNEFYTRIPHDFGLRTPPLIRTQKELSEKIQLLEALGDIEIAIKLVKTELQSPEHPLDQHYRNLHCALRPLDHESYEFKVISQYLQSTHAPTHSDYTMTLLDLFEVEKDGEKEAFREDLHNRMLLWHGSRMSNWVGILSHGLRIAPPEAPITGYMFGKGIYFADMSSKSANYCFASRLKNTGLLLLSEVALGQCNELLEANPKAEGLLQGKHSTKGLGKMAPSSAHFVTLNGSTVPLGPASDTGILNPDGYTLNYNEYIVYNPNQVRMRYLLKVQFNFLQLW

COc1ccc(C2(CNC(=O)c3ccc(NC(=O)c4ccco4)cc3Cl)CCOCC2)cc1
pIC50 [1]: < 5.00
pIC50 [2]: < 4.00
pIC50 [3]: < 4.00
pIC50 [4]: < 5.00
pIC50 [5]: < 4.00
pIC50 [6]: 6.24
pIC50 [7]: < 4.00
